How the values were obtained:
[1] = tested on: Cholic acid-loaded rat model; assay: Bile acid-decreasing effect in portal vein of rats loaded with cholic acid (Test Example 2); format: in vivo; conditions: 0.1 mg/kg oral with cholic acid 200 mg/kg, portal vein blood after 2 hours
Description: Bile Acid-Decreasing Effect in Portal Vein of Rats Loaded With Cholic Acid
In this test example, the test for confirming the bile acid-decreasing effect in portal vein of cholic acid-loaded rats was carried out according to the method described in Pharmacology and Therapeutics [Jpn Pharmacol. Ther., Vol. 24 Supplement, 1996, 103 (S-577)-110 (S-584)].
That is, 7 to 9 weeks old SD (IGS) rats were starved on the day before the test and thereafter. […] After 2 hours from the administration, a sample of blood was taken from a portal vein and total serum bile acid level was measured to study the effect of the test compound (n=6). Further, as a control group, a group (n=6) loaded with cholic acid (200 mg/kg) only was prepared and the same test procedure was followed. A commercially available kit (trade name: SOTANJUSAN-TEST WAKO-(SOTANJUSAN=total bile acid), manufactured by WAKO PURE CHEMICAL […], LTD.) was used for the measurement of bile acid. Assuming the value of the control group, which is a group in which no test compound was used, as 100%, the rate of decrease (percentage (%) of decrease) of the bile acid level when a fixed amount of the test compound was used was determined.

human IBAT = molecular target: T1, human IBAT (Homo sapiens, UniProt Q12908); assay: In vitro assay of temporarily expressed human IBAT transporter using Cos 7 cells (Test Example 8); format: cell-based; conditions: Cos 7 cells temporarily expressing human IBAT; [3H] taurocholate 8 μM, 37° C., 60 minutes
T1 construct: expressed in transfected cells; host or cells: Cos 7
T1 sequence (Q12908 1-348): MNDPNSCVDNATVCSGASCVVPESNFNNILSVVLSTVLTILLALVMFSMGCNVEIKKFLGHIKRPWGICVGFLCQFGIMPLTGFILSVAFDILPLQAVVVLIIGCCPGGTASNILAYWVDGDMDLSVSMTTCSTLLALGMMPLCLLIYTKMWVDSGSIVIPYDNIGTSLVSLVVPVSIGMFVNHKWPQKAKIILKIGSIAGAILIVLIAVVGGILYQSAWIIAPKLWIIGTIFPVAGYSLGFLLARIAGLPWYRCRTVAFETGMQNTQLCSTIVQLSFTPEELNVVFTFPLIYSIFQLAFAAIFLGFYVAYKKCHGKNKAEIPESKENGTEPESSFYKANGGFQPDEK
Outline: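 Cos 7 cells transiently transfected with human or rat IBAT cDNA, assayed one day later in Hank's buffer with 25 mM glucose, 10 mM HEPES (pH 7.4) plus compound. Uptake of 8 μM [^3H]taurocholate over 60 min at 37 °C, stopped with 1 mM taurocholate washes; lysate radioactivity by scintillation counting.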

rat IBAT = molecular target: T2, rat IBAT (Rattus norvegicus, UniProt Q62633); assay: In vitro assay of temporarily expressed rat IBAT transporter using Cos 7 cells (Test Example 8); format: cell-based; conditions: Cos 7 cells temporarily expressing rat IBAT; [3H] taurocholate 8 μM, 37° C., 60 minutes
T2 construct: expressed in transfected cells; host or cells: Cos 7
T2 sequence (Q62633 1-348): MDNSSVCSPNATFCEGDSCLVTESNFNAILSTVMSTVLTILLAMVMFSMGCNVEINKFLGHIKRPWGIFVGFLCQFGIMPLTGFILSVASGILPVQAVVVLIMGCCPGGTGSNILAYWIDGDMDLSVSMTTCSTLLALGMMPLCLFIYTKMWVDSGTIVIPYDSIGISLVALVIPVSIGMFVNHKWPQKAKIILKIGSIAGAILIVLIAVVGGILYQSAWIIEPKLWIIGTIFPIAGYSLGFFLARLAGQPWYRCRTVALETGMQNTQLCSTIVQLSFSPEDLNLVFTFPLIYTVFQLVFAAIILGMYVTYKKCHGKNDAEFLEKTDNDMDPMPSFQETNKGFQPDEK
Description: In Vitro Assay of Compounds Which Inhibit Temporarily Expressed Human IBAT Transporter or Rat IBAT Transporter Using Cos 7 Cells
In this test example, the in vitro assay of the compounds which inhibit temporarily expressed human IBAT transporter or rat IBAT transporter using Cos cells was carried out according to the method described in Am. J. Physiol., 274, G157-169.
That is, […] Cos 7 were inoculated on a 24-well cell plate. One day later, 0.3 μg per well of cDNA of a human IBAT or a rat IBAT was transfected by using FuGENE6 (manufactured by ROCHE PHARMACEUTICAL CO., LTD.). For the assay, the cells cultured for one day after the transfection were used and the following procedure was followed. The cells were washed once with an assay buffer, Hank's buffer solution containing 25 mM glucose and with 10 mM HEPES (pH 7.4), and then the assay buffer was replaced by an assay buffer to which the test compound was added. After adding [^3H] taurocholate to a final concentration of 8 μM, the cells were incubated at 37° C. for 60 minutes. [^3H] taurocholate was allowed to be incorporated in Cos 7 cells through human IBAT or rat IBAT. The reaction was stopped by washing twice with a buffer prepared by adding 1 mM taurocholate to the assay buffer and lyzing the cells with 0.2M NaOH. Measurement of radioactivity was carried out by introducing the cell lyzate in 4 ml of liquid scintillation cocktail, stirring the mixture well, and then measuring the radioactivity by a scintillation counter.

Caco 2 cells = assay: Toxicity with respect to alimentary canal: cytotoxicity to Caco 2, LDH activity (Test Example 12); format: cell-based, human; conditions: LDH activity after 2 hours, relative to cytolytic agent = 100%
Description: Toxicity With Respect to Alimentary Canal
To evaluate the toxicity of the compounds of the present invention to the alimentary canal, the cytotoxicity to Caco 2, which is a human originated small intestine epithelial cell line, was tested by referring to the method of Bestwick C S et al. [Biochimica et Biophysica Acta 1474: 47-55, 1999].
That is, Caco 2 cells (purchased from ATCC) were inoculated on a 96-well plate such that there were 10,000 cells/well [MEM-E medium, 10% FBS (Fetal Bovine Serum), 1% NEAA (Non Essential Amino Acid) solution, (both manufactured by GIBCO PHARMACEUTICAL COMPANY)]. After culturing for 48 hours, the test compounds were diluted with the culture medium and added to the respective wells. After 2 hours, 50 μl of the culture broth was collected and the LDH activity in the collected culture broth was measured by using an LDH activity measuring kit (CytoTox 96 Non-Radioactive Cytotoxicity Assay, manufactured by PROMEGA CORPORATION). Relative activities were calculated assuming the LDH activity as 100% when the Caco 2 cells were treated with the cytolytic agent and the obtained relative activities were taken as cytotoxicities to Caco 2 cell.

SMILES | Rate of decrease (%) of bile acid ([1]; Tween 20 0.05%) [%] | IC50 (human IBAT) [nM] | IC50 (rat IBAT) [nM] | Rate of decrease (%) of bile acid ([1]; HCO-60 0.1%) [%] | Toxicity (%) to Caco 2 (Caco 2 cells; 3 μM) [%] | Toxicity (%) to Caco 2 (Caco 2 cells; 10 μM) [%] | Toxicity (%) to Caco 2 (Caco 2 cells; 30 μM) [%]
CCCCC1(CCCC)CS(=O)(=O)c2ccc(N(C)C)cc2C(c2cccc(NC(=S)CCCCCCC[N+]34CCC(CC3)CC4)c2)N1 (centres unmarked) [Example 3932] | 30 | 36 | 9 | – | – | – | –
CCCCC1(CCCC)CS(=O)(=O)c2ccc(N(C)C)cc2C(c2cccc(NC(=S)CCCCC[N+]34CCC(c5ccccc5)(CC3)CC4)c2)N1 (centres unmarked) [Example 3853] | – | 28 | 9 | 36 | <1 | <1 | <1
CCCCC1(CCCC)CS(=O)(=O)c2ccc(N(C)C)cc2C(c2cccc(NC(=S)Nc3ccc(C[N+]45CCC(CC4)CC5)cc3)c2)N1.[Br-] (centres unmarked) [Example 3695] | – | 37 | 5 | 23 | <1 | <1 | <1
CCCCC1(CCCC)CS(=O)(=O)c2ccc(N(C)C)cc2C(c2cccc(NC(=S)NCCC[N+]34CCC(CC3)CC4)c2)N1 (centres unmarked) [Example 9, 1-(3-{3-[3,3-Dibutyl-7-dimethylamino-1,1-dioxo-2,3,4,5-tetrahydro-1,4-benzothiazepin-5-yl)phenyl]thioureido}-propyl)-1-azoniabicyclo[2.2.2]octane bromide] | – | 76 | 36 | – | – | – | –

— patent publication US7803792B2, “Quaternary ammonium compounds” (Asahi Kasei Pharma Corporation, priority 2002, dated 2010)
